Each structure is given as a SMILES string.

The test concerns HEK293-STF3A cells. Briefly: STF3A assay (luciferase reporter). As to conditions: Homo sapiens, 24 h, 1 day of treatment. It is filed as cell-based. As for the experimental part: HEK293-STF cell line was modified from Human embryonic kidney cell line HEK293 transfected with the STF reporter. HEK293-STF3A cell line was further modified from HEK293-STF cell line to express Wnt3A. This cell line was used to identify compounds that regulate either early or late signalling components of the Wnt pathway. L-Wnt3A (ATCC, #CRL-2647) cell line was used for providing Wnt3A conditioned media. The three cell lines were grown in DMEM (Dulbecco's Modified Eagle Medium) with 10% FBS (fetal bovine serum) incubated in 37° C. with 5% CO2. 2×10^4 HEK293-STF3A cells in 75 μl culture media were seeded in each well of white 96 well plates (Greiner #655098) and incubated overnight at 37° C. 25 μl serially diluted compound was added to the cells to give final concentration of 50 μM to 1.5 nM. After 1 day of treatment, 100 μl of Steady-Glo® Luciferase Assay reagent (#E2520, Promega) was added to each well and incubated for 10 minutes at room temperature. Luminescence was measured using Tecan Safire2® plate reader.
The IC50 is the midpoint of a concentration-inhibition curve. Higher therefore signals weaker potency. `Cn1c(=O)c2c(ncn2CC(=O)Nc2cnc(-c3ccccc3)cn2)n(C)c1=O` [Compound 36, 2-(1,3-dimethyl-2,6-dioxo-2,3-dihydro-1H-purin-7(6H)-yl)-N-(5-phenylpyrazin-2-yl)acetamide] returned a concentration for half-maximal inhibition (IC50) of less than 100 nM.

Compound `Cn1c(=O)c2c(ncn2CC(=O)Nc2ccc(-c3ccc(F)cc3)cn2)n(C)c1=O` [Compound 37, 2-(1,3-dimethyl-2,6-dioxo-2,3-dihydro-1H-purin-7(6H)-yl)-N-(5-(4-fluorophenyl)pyridin-2-yl)acetamide] displayed an IC50 of less than 100 nM.

On to `COC(=O)c1ccc(-c2ccc(NC(=O)Cn3cnc4c3c(=O)n(C)c(=O)n4C)cc2)cc1` [Compound 38, methyl 4′-(2-(1,3-dimethyl-2,6-dioxo-2,3-dihydro-1H-purin-7(6H)-yl)acetamido)biphenyl-4-carboxylate], for which the IC50 was less than 100 nM.

`Cn1c(=O)c2c(ncn2CC(=O)Nc2cc(-c3ccccc3)no2)n(C)c1=O` [Compound 39, 2-(1,3-dimethyl-2,6-dioxo-2,3-dihydro-1H-purin-7(6H)-yl)-N-(3-phenylisoxazol-5-yl)acetamide]: the IC50 was more than 10000 nM.

As to `Cn1c(=O)c2c(ncn2CC(=O)Nc2ccc(-c3cnco3)cc2)n(C)c1=O` [Compound 40, 2-(1,3-dimethyl-2,6-dioxo-2,3-dihydro-1H-purin-7(6H)-yl)-N-(4-(oxazol-5-yl)phenyl)acetamide], the IC50 was less than 1000 nM.

With `Cn1c(=O)c2c(ncn2CC(=O)Nc2ccc(-c3nccs3)cn2)n(C)c1=O` [Compound 41, 2-(1,3-dimethyl-2,6-dioxo-2,3-dihydro-1H-purin-7(6H)-yl)-N-(5-(thiazol-2-yl)pyridin-2-yl)acetamide], the IC50 was less than 100 nM.

On to `Cn1c(=O)c2c(ncn2CC(=O)Nc2ccc(N3CCNCC3)cn2)n(C)c1=O` [Compound 42, 2-(1,3-dimethyl-2,6-dioxo-2,3-dihydro-1H-purin-7(6H)-yl)-N-(5-(piperazin-1-yl)pyridin-2-yl)acetamide], for which the concentration for half-maximal inhibition (IC50) was more than 10000 nM.

On to `C[C@H]1CNCCN1c1ccc(NC(=O)Cn2cnc3c2c(=O)n(C)c(=O)n3C)cc1` [Compound 43, (S)-2-(1,3-dimethyl-2,6-dioxo-2,3-dihydro-1H-purin-7(6H)-yl)-N-(4-(2-methylpiperazin-1-yl)phenyl)acetamide], for which the IC50 is more than 10000 nM.

On to `C[C@@H]1CNCCN1c1ccc(NC(=O)Cn2cnc3c2c(=O)n(C)c(=O)n3C)cc1` [Compound 44, (R)-2-(1,3-dimethyl-2,6-dioxo-2,3-dihydro-1H-purin-7(6H)-yl)-N-(4-(2-methylpiperazin-1-yl)phenyl)acetamide], for which the IC50 is more than 10000 nM.

With `Cn1c(=O)c2c(ncn2CC(=O)Nc2ccc(N3CCN(C(=O)c4ccccc4)CC3)cn2)n(C)c1=O` [Compound 45, N-(5-(4-benzoylpiperazin-1-yl)pyridin-2-yl)-2-(1,3-dimethyl-2,6-dioxo-2,3-dihydro-1H-purin-7(6H)-yl)acetamide], the IC50 is less than 100 nM.

Compound `C[C@H]1CN(C(=O)c2ccccc2)CCN1c1ccc(NC(=O)Cn2cnc3c2c(=O)n(C)c(=O)n3C)cc1` [Compound 46, (S)—N-(4-(4-benzoyl-2-methylpiperazin-1-yl)phenyl)-2-(1,3-dimethyl-2,6-dioxo-2,3-dihydro-1H-purin-7(6H)-yl)acetamide] yielded a half-inhibitory concentration (IC50) of less than 1000 nM.

`Cn1c(=O)c2c(ncn2CC(=O)Nc2ccc(N3CCN(C(=O)CC(C)(C)C)CC3)cn2)n(C)c1=O` [Compound 47, 2-(1,3-dimethyl-2,6-dioxo-2,3-dihydro-1H-purin-7(6H)-yl)-N-(5-(4-(3,3-dimethylbutanoyl)piperazin-1-yl)pyridin-2-yl)acetamide] showed an IC50 of less than 1000 nM.

For the compound `CC(=O)N1CCN(c2ccc(NC(=O)Cn3cnc4c3c(=O)n(C)c(=O)n4C)nc2)CC1` [Compound 48], the 50% inhibitory concentration (IC50) is less than 1000 nM.

In turn, `Cn1c(=O)c2c(ncn2CC(=O)Nc2ccc(N3CCN(C(=O)c4ccc(Cl)cc4)CC3)cn2)n(C)c1=O` [Compound 49, N-(5-(4-(4-chlorobenzoyl)piperazin-1-yl)pyridin-2-yl)-2-(1,3-dimethyl-2,6-dioxo-2,3-dihydro-1H-purin-7(6H)-yl)acetamide] gave an IC50 of less than 1000 nM.

`Cn1c(=O)c2c(ncn2CC(=O)Nc2ccc(N3CCN(C(=O)c4cccs4)CC3)cn2)n(C)c1=O` [Compound 50, 2-(1,3-dimethyl-2,6-dioxo-2,3-dihydro-1H-purin-7(6H)-yl)-N-(5-(4-(thiophene-2-carbonyl)piperazin-1-yl)pyridin-2-yl)acetamide] returned an IC50 of less than 1000 nM.

For the compound `Cn1c(=O)c2c(ncn2CC(=O)Nc2ccc(N3CCN(C(=O)c4cccc(F)c4)CC3)cn2)n(C)c1=O` [Compound 51, 2-(1,3-dimethyl-2,6-dioxo-2,3-dihydro-1H-purin-7(6H)-yl)-N-(5-(4-(3-fluorobenzoyl)piperazin-1-yl)pyridin-2-yl)acetamide], the IC50 is less than 1000 nM.

`Cn1c(=O)c2c(ncn2CC(=O)Nc2ccc(N3CCN(C(=O)c4ccc(F)cc4)CC3)cn2)n(C)c1=O` [Compound 52, 2-(1,3-dimethyl-2,6-dioxo-2,3-dihydro-1H-purin-7(6H)-yl)-N-(5-(4-(4-fluorobenzoyl)piperazin-1-yl)pyridin-2-yl)acetamide] showed an IC50 of less than 1000 nM.

As to `Cn1c(=O)c2c(ncn2CC(=O)Nc2ccc(N3CCN(Cc4ccccc4)CC3)cn2)n(C)c1=O` [Compound 53, N-(5-(4-benzylpiperazin-1-yl)pyridin-2-yl)-2-(1,3-dimethyl-2,6-dioxo-2,3-dihydro-1H-purin-7(6H)-yl)acetamide], the IC50 was less than 100 nM.

Regarding `Cn1c(=O)c2c(ncn2CC(=O)Nc2ccc(N3CCN(Cc4cc(F)cc(F)c4)CC3)cn2)n(C)c1=O` [Compound 54, N-(5-(4-(3,5-difluorobenzyl)piperazin-1-yl)pyridin-2-yl)-2-(1,3-dimethyl-2,6-dioxo-2,3-dihydro-1H-purin-7(6H)-yl)acetamide], the 50% inhibitory concentration (IC50) was less than 100 nM.

In the case of `Cn1c(=O)c2c(ncn2CC(=O)Nc2ccc(N3CCN(Cc4ccccc4F)CC3)cn2)n(C)c1=O` [Compound 55, 2-(1,3-dimethyl-2,6-dioxo-2,3-dihydro-1H-purin-7(6H)-yl)-N-(5-(4-(2-fluorobenzyl)piperazin-1-yl)pyridin-2-yl)acetamide], the 50% inhibitory concentration (IC50) is less than 5000 nM.

Compound `Cn1c(=O)c2c(ncn2CC(=O)Nc2ccc(N3CCN(Cc4ccc(F)cc4)CC3)cn2)n(C)c1=O` [Compound 56, 2-(1,3-dimethyl-2,6-dioxo-2,3-dihydro-1H-purin-7(6H)-yl)-N-(5-(4-(4-fluorobenzyl)piperazin-1-yl)pyridin-2-yl)acetamide] came in with an IC50 of less than 1000 nM.

The compound `Cn1c(=O)c2c(ncn2CC(=O)Nc2ccc(N3CCN(Cc4cccc(F)c4)CC3)cn2)n(C)c1=O` [Compound 57, 2-(1,3-dimethyl-2,6-dioxo-2,3-dihydro-1H-purin-7(6H)-yl)-N-(5-(4-(3-fluorobenzyl)piperazin-1-yl)pyridin-2-yl)acetamide] displayed an IC50 of less than 100 nM.

The compound `C[C@H](C(=O)Nc1ccc(-c2ccsc2)cc1)n1cnc2c1c(=O)n(C)c(=O)n2C` [Compound 58, (R)-2-(1,3-dimethyl-2,6-dioxo-2,3-dihydro-1H-purin-7(6H)-yl)-N-(4-(thiophen-3-yl)phenyl)propanamide] displayed an IC50 of more than 10000 nM.

As for `C[C@@H](C(=O)Nc1ccc(-c2ccsc2)cc1)n1cnc2c1c(=O)n(C)c(=O)n2C` [Compound 59, (S)-2-(1,3-dimethyl-2,6-dioxo-2,3-dihydro-1H-purin-7(6H)-yl)-N-(4-(thiophen-3-yl)phenyl)propanamide], the half-inhibitory concentration (IC50) was less than 100 nM.

Regarding `Cn1c(=O)c2c(ncn2C(C)(C)C(=O)Nc2ccc(-c3ccsc3)cc2)n(C)c1=O` [Compound 60, 2-(1,3-dimethyl-2,6-dioxo-2,3-dihydro-1H-purin-7(6H)-yl)-2-methyl-N-(4-(thiophen-3-yl)phenyl)propanamide], the IC50 was less than 1000 nM.

Take `CC(C(=O)Nc1ccc(-c2ccsc2)cc1)n1cnc2c1c(=O)n(C)c(=O)n2C` (stereo not shown) [Compound 61, 2-(1,3-dimethyl-2,6-dioxo-2,3-dihydro-1H-purin-7(6H)-yl)-N-(4-(thiophen-3-yl)phenyl)propanamide]: the IC50 was less than 100 nM.

In turn, `CC(C(=O)Nc1ccc(-c2ccccc2)cc1)n1cnc2c1c(=O)n(C)c(=O)n2C` (stereo not shown) [Compound 62, N-(biphenyl-4-yl)-2-(1,3-dimethyl-2,6-dioxo-2,3-dihydro-1H-purin-7(6H)-yl)propanamide] returned an IC50 of less than 100 nM.

Compound `CC(C(=O)Nc1ccc(N2CCN(Cc3cc(F)cc(F)c3)CC2)cc1)n1cnc2c1c(=O)n(C)c(=O)n2C` (stereo not shown) [Compound 63, N-(4-(4-(3,5-difluorobenzyl)piperazin-1-yl)phenyl)-2-(1,3-dimethyl-2,6-dioxo-2,3-dihydro-1H-purin-7(6H)-yl)propanamide] gave an IC50 of less than 1000 nM.

With `CCC(C(=O)Nc1ccc(-c2ccsc2)cc1)n1cnc2c1c(=O)n(C)c(=O)n2C` (stereo not shown) [Compound 64, 2-(1,3-dimethyl-2,6-dioxo-2,3-dihydro-1H-purin-7(6H)-yl)-N-(4-(thiophen-3-yl)phenyl)butanamide], the concentration for half-maximal inhibition (IC50) is less than 100 nM.

`CC(C)C(C(=O)Nc1ccc(-c2ccccc2)cc1)n1cnc2c1c(=O)n(C)c(=O)n2C` (stereo not shown) [Compound 65, N-(biphenyl-4-yl)-2-(1,3-dimethyl-2,6-dioxo-2,3-dihydro-1H-purin-7(6H)-yl)-3-methylbutanamide] registered an IC50 of more than 10000 nM.

In the case of `Cc1nc2c(c(=O)n(C)c(=O)n2C)n1CC(=O)Nc1ccc(-c2ccsc2)cc1` [Compound 66, N-(4-(thiophen-3-yl)phenyl)-2-(1,3,8-trimethyl-2,6-dioxo-2,3-dihydro-1H-purin-7(6H)-yl)acetamide], the IC50 is less than 100 nM.

(Values after US12559495B2 (Agency for Science, Technology and Research, priority 2013, dated 2026).)
